One experiment deals with T1, LIMK2 (Homo sapiens, UniProt P53671).
T1 construct: purchased Reaction Biology Europe GmbH (formerly ProQinase)
In words: kinome screen (33PanQinase). In kind it is biochemical. The protocol: (§1) The Kinome Screening was performed by Reaction Biology Europe GmbH (http://reactionbiology.com; Freiburg i. Br., Germany).

For a further experiment, the target named is T2, EGFR (Homo sapiens, UniProt P00533).
T2 construct: purchased Reaction Biology Europe GmbH (formerly ProQinase)
In words: kinome screen (33PanQinase). It counts as biochemical. The protocol:
as §1

The next experiment deals with T3, WNK2 (Homo sapiens, UniProt Q9Y3S1).
T3 construct: purchased Reaction Biology Europe GmbH (formerly ProQinase)
Nature of the experiment: kinome screen (33PanQinase). In kind it is biochemical. The protocol:
as §1

Experiment [1] deals with DLBCL177 diffuse large B cell lymphoma cells. Conditions: read-out: IC50 (DLBCL177); primary patient cells, 24 h.
Source text: (§4) For chronic lymphocytic leukemia, mononuclear cells were isolated from peripheral blood using a Ficoll gradient (GE Healthcare). Primary cells from other lymphoma entities were isolated as previously described [80]. All cells were cryopreserved after isolation and thawed as previously described [81].
(§5) The resazurin reduction assay, which is also known as AlamarBlue® assay, was used for the determination of cell viability in all cytotoxicity determinations shown in the present work, as previously described [22]. Briefly, cells were seeded at a specific density depending on the incubation time (24 h: 1 × 10^6 cells/ml) in a 96-well plate and incubated with increasing compound concentrations (0.01–30 µM). After the specified treatment time, resazurin (Sigma, #R7017) was added to a final concentration of 40 µM. […] The viability of control cells was set to 100% and all other values were normalized to the control condition, the dose-response curves were then fitted with Prism v7.01 (GraphPad software, La Jolla, CA, USA).
The test system of experiment [2] is FL303 follicular lymphoma cells. The following applies: read-out: IC50 (FL303); primary patient cells, 24 h.
Source text: as §4
The resazurin reduction assay, which is also known as AlamarBlue® assay, was used for the determination of cell viability in all cytotoxicity determinations shown in the present work, as previously described [22]. Briefly, cells were seeded at a specific density depending on the incubation time (24 h: 1 × 10^6 cells/ml) in a 96-well plate and incubated with increasing compound concentrations (0.01–30 µM). After the specified treatment time, resazurin (Sigma, #R7017) was added to a final concentration of 40 µM. […] The viability of control cells was set to 100% and all other values were normalized to the control condition, the dose-response curves were then fitted with Prism v7.01 (GraphPad software, La Jolla, CA, USA). The reduction of resazurin to resorufin is proportional to aerobic respiration; therefore, it is used as a measure for the cell viability and cytotoxicity of a tested compound.
A further experiment deals with T4, CDK1/cyclin B1 (Homo sapiens, UniProt P06493).
T4 construct: purchased BPS Bioscience #79597
Nature of the experiment: luminescence-based kinase activity assay. The following applies: result in words. In kind it is biochemical. The protocol:
(§2) The activity of specific CDKs and their cyclins was assessed using CDK Kits from BPS Bioscience (CDK1/cyclin B1 #79597; CDK2/cyclin A2 #79599; CDK9/cyclin T #79628). The assay was conducted following the manufacturer’s guidelines. In summary, the CDK/cyclin complexes, as purified recombinant enzymes, were allowed to react with CDK substrate peptide, ATP, and kinase buffer in the presence or absence of meriolins. The reaction was initiated by adding diluted CDK/cyclin enzyme to the wells and incubating for 45 min at 30 °C. After the incubation, the Kinase-Glo-Max® reagent was added as a detection reagent, and the resulting luciferase reaction produced luminescence, which was inversely correlated with the kinase activity.
(§3) The luminescent CDK/cyclin assay is a method that quantifies the amount of ATP remaining in the solution after a kinase reaction. Luminescence was measured using the Synergy Mix microplate reader as an endpoint measurement. Data analyses were performed according to the manufacturer’s instructions, and statistical analysis was carried out using one-way ANOVA, with corrections made by Bonferroni’s multiple comparison test. The significance level was indicated as ****p ≤ 0.0001.

A further experiment deals with T5, CDK9/cyclin T (Homo sapiens, UniProt P50750).
T5 construct: purchased BPS Bioscience #79628
Nature of the experiment: luminescence-based kinase activity assay. In kind it is biochemical. The following applies: result in words. The protocol: as §2, §3

For the next experiment, the target named is T6, CDK2/cyclin A2 (Homo sapiens, UniProt P24941).
T6 construct: purchased BPS Bioscience #79599
Nature of the experiment: luminescence-based kinase activity assay. It counts as biochemical. The following applies: result in words. The method, then: as §2, §3

Experiment [3] relates to CDK9 and cyclin T1 protein levels. In words: immunoblotting of CDK9 and cyclin T1 in Ramos cells. It counts as cell-based, human. The following applies: 0.1 and 1 µM, 4-24 h. The method, then: Cells were seeded at a density of 2 × 10^6 cells, treated as specified and harvested by centrifugation at 3000 rpm for 5 min, followed by freezing in liquid nitrogen. The cell pellets were thawed on ice and quick-frozen and defrozen in liquid nitrogen for three times, then lysed on ice in lysis buffer (20 mM Tris-HCl, 150 mM NaCl, 1% v/v Triton X-100, 0.5 mM EDTA, 10 mM NaF, 2.5 mM Na4P2O7, protease inhibitor (Sigma, #P2714)) for 30 min, accompanied by vortexing. Subsequently, centrifugation 13,300 rpm for 15 min purified cell lysates from cell debris. The supernatant was transferred to a new tube and the protein concentration was determined by Bradford assay. The samples were diluted with sample buffer. SDS-Page and Western Blot were conducted in accordance with standard workflows. […] The antibody baths were stored at 4 °C and re-used.
The density of the individual protein band was determined using Image Studio^TM Lite Version 5.2. The density of each protein was divided by the average of all bands of this protein. The ratios of the protein of interest were normalized to the ratio of the respective loading control. To determine the fold change, each normalized ratio was divided by the normalized band of the control line (untreated cells). Fold change is 1 for the control line, n ≥ 2. The results are shown as mean ± standard deviation and were visualized with GraphPad Prism 7.
(In western blotting, separated proteins are transferred to a membrane and probed.)

The test system of a further experiment is Ramos cells. Nature of the experiment: BrdU cell proliferation assay. It counts as cell-based, human. Conditions: 24 h, non-lethal doses. The protocol:
The Bromodeoxyuridine (BrdU) Cell Proliferation kit from Millipore (#QIA58-1000TEST) was used to measure proliferation of cells. The manufacturer protocol has been optimized as described in the following. 1 × 10^4 cells per well were seeded in a 96-well plate. The cells were pre-incubated with the compounds of interest for 1 h. Following this, the BrdU solution was added and the cells were incubated for a total of 24 h. BrdU is an analog of the nucleoside thymidine and is incorporated into the DNA of dividing cells during replication. Culture medium was removed and cells were fixed and denatured with Fixative/Denaturing solution for 30 min at room temperature. Since suspension cells were used, they had to be centrifuged at 1200 rpm for 5 min after each following step. After, the anti-BrdU-antibody was incubated for 1 h at RT. Cells were washed three times with washing buffer. The secondary antibody, which is coupled to HRP (horseradish peroxidase) was incubated for 30 min at RT. Again, cells were washed three times with washing buffer.
Then, the substrate solution was added, that contained TMB (3,3’,5,5’-Tetramethylbenzidine), which is oxidized by HRP. Oxidation of TMB causes a color change from colorless to blue. The intensity of color change is correlated with the number of bound peroxidases, which depends on the quantity of primary antibodies and therefore on the content of the incorporated BrdU. If the cells are not proliferating, no BrdU is incorporated, resulting in a weak signal.
After 15 min incubation time the stopping reagent was added, causing a pH change and resulting in a color change from blue to yellow. The colored reaction product was quantified at 450 nm using a spectrophotometer. For all measurements, three technical replicates were made. The control was set to 100% proliferation, and the treated cells were normalized to the control. The results were visualized using GraphPad Prism 7.

The test system of experiment [4] is FL100 follicular lymphoma cells. The following applies: read-out: IC50 (FL100); primary patient cells, 24 h.
Source text: as §4, §5

These results are taken from article PMC11167047 (Cell Death Discovery, 2024).

T3 sequence (Q9Y3S1 whole entry): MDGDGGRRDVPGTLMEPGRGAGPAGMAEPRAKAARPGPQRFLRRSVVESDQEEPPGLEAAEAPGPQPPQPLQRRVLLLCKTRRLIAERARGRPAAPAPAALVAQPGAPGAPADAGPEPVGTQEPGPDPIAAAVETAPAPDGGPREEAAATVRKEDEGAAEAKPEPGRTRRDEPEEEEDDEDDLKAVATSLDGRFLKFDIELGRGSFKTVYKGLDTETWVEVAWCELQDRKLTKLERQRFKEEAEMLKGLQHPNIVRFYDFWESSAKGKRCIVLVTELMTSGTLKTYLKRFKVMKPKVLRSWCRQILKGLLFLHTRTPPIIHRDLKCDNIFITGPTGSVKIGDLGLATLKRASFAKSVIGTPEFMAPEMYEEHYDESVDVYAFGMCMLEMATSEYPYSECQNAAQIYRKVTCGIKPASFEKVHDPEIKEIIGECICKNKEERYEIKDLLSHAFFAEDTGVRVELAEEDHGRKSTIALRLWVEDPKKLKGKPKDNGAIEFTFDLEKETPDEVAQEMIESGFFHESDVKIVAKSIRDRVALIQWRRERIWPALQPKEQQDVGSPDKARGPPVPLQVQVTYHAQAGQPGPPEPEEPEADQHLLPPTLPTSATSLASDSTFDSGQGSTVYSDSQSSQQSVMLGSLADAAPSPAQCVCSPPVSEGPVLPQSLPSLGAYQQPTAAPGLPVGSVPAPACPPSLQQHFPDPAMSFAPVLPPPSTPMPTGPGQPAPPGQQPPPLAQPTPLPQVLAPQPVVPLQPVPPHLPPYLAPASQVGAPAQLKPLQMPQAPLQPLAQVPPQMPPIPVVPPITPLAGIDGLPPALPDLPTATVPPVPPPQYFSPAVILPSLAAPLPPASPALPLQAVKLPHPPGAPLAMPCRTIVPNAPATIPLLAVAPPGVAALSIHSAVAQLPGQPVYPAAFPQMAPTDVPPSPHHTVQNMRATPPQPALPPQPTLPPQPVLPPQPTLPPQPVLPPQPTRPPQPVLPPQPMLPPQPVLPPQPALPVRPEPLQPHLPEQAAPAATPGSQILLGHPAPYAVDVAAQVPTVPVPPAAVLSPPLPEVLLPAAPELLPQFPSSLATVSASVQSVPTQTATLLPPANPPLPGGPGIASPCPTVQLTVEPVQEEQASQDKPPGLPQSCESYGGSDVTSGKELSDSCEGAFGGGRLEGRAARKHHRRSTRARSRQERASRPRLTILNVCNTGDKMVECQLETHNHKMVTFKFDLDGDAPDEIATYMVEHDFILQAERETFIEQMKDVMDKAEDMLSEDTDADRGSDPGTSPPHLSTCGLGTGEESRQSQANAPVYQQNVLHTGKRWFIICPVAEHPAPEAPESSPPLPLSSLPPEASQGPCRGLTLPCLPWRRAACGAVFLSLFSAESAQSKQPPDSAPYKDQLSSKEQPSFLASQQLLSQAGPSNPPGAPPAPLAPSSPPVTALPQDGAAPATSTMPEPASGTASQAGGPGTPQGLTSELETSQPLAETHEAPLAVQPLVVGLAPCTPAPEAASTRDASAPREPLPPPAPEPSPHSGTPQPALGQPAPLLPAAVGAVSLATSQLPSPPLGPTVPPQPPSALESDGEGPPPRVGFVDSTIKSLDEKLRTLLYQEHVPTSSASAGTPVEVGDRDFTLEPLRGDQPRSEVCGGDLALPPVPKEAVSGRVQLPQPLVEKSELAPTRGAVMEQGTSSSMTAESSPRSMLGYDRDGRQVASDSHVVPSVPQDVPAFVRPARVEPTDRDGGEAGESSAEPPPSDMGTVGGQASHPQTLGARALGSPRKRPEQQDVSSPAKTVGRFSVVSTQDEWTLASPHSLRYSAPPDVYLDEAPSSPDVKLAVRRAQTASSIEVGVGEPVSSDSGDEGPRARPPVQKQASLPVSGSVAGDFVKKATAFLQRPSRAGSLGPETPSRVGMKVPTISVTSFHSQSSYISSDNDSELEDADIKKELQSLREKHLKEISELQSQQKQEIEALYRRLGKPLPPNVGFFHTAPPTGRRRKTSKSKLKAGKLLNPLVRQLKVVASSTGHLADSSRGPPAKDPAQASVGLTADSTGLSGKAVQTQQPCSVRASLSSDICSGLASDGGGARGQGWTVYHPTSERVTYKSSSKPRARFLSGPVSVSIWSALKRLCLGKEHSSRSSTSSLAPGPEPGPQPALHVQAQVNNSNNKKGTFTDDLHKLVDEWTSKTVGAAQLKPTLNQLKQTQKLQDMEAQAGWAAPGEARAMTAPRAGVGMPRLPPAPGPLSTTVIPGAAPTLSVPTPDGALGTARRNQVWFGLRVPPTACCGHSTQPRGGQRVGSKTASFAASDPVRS
T2 sequence (P00533 25-1210): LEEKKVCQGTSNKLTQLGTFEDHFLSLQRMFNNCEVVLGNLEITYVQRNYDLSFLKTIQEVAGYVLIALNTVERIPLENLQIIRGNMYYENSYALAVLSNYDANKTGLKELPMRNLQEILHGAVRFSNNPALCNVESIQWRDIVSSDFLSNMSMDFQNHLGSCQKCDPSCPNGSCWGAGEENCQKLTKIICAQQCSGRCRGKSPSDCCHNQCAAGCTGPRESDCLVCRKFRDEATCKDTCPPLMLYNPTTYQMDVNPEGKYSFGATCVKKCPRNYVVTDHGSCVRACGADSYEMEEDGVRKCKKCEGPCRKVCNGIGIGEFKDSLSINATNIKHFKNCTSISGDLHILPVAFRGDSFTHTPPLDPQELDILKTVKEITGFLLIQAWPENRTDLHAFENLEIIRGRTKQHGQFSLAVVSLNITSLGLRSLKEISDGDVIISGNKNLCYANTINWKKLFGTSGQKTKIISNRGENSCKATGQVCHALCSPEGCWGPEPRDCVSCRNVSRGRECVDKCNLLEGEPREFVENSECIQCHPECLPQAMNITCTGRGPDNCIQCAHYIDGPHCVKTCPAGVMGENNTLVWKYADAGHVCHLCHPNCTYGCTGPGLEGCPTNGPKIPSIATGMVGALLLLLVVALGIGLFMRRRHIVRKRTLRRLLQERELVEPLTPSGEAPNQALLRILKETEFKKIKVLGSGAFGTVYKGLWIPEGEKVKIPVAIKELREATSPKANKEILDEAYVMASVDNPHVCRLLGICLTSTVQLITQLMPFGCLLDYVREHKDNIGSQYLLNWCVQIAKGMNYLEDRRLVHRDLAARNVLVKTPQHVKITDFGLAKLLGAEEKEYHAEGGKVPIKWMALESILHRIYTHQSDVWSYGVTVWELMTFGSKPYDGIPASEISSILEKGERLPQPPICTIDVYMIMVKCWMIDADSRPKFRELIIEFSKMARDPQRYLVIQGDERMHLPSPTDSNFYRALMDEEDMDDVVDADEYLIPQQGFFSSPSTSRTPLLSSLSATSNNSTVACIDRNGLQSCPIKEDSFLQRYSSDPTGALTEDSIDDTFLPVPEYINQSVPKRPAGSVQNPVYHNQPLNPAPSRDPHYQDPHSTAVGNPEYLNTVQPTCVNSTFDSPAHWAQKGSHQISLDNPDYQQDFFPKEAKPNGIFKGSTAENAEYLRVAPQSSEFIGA
T1 sequence (P53671 whole entry): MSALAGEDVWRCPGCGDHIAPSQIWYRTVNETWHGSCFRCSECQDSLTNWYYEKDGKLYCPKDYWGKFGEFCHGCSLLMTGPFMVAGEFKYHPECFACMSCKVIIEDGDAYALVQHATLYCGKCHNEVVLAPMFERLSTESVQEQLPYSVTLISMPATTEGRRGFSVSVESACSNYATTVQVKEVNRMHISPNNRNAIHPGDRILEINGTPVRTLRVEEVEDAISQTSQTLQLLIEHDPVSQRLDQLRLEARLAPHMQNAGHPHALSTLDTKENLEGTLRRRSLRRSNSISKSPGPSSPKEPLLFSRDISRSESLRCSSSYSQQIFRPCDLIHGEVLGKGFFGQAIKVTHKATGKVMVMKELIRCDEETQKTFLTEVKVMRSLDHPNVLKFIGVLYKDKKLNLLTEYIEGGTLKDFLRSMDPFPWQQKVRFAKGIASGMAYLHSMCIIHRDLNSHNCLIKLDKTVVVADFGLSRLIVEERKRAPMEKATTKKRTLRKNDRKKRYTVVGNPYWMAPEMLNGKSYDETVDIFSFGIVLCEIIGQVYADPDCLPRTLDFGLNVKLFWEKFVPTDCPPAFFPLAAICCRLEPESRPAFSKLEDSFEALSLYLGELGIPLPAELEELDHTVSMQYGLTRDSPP
T4 sequence (P06493 whole entry): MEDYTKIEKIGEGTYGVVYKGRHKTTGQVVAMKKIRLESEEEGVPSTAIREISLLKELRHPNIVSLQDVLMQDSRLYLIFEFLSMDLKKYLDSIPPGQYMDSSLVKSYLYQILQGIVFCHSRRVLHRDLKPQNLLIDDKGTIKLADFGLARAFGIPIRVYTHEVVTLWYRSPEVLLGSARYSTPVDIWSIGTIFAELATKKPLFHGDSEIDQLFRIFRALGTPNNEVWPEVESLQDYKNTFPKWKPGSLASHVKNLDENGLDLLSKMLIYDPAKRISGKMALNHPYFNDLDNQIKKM
T4 sequence (P14635 whole entry partner): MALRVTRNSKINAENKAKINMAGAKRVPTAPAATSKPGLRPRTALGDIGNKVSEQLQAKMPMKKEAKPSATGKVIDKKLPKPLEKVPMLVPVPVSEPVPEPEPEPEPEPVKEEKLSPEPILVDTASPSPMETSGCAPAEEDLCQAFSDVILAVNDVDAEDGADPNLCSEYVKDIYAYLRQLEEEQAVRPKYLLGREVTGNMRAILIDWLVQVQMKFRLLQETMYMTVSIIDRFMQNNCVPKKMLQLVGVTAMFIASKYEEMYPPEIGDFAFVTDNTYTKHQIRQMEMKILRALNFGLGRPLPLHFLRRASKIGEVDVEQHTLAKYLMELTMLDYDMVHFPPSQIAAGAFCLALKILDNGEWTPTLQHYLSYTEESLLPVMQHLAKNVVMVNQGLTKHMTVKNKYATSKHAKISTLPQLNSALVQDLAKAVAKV

Regarding `c1ccc(CNc2cc(-c3c[nH]c4ncccc34)ccn2)cc1` [meriolin 36], the residual kinase activity at LIMK2 (0.3 µM) is 70 % of control; at LIMK2 (3 µM), 27 % of control; at EGFR (0.3 µM), 107 % of control; at EGFR (3 µM) it was 53 % of control; on WNK2 (0.3 µM) it was 86 % of control; on WNK2 (3 µM), 74 % of control. The IC50 was found to be 50 nM in [1], 170 nM in experiment [2] and 90 nM in [4]. The “inhibition of CDK1/cyclin B1” value on CDK1/cyclin B1 was “inhibited”. The “inhibition of CDK9/cyclin T” value on CDK9/cyclin T was “inhibited”. Further, at CDK2/cyclin A2, the “inhibition of CDK2/cyclin A2” value is on record as “inhibited”. The “CDK9 and cyclin T1 protein levels” value in experiment [3] is recorded as “relatively stable”. Moreover, in the experiment with Ramos cells, the “proliferation (BrdU incorporation)” value is listed as “substantial decrease in proliferation”.

Consider `COc1ccnc2[nH]cc(-c3cc(N)nc(N)c3)c12` [meriolin 16], for which the residual kinase activity at LIMK2 (0.03 µM) is given as 106 % of control; at LIMK2 (0.3 µM), 101 % of control; at EGFR (0.03 µM) it was 109 % of control; at EGFR (0.3 µM) it was 90 % of control; at WNK2 (0.03 µM), 99 % of control; on WNK2 (0.3 µM) it was 86 % of control. For the same compound, the IC50 in experiment [1] came to 80 nM; in [2], 60 nM; in [4] it was 60 nM. Besides, the “inhibition of CDK1/cyclin B1” value on CDK1/cyclin B1 is reported as “inhibited”. In addition, the “inhibition of CDK9/cyclin T” value on CDK9/cyclin T is given as “inhibited”. The “inhibition of CDK2/cyclin A2” value at CDK2/cyclin A2 was “inhibited”. Besides, the “CDK9 and cyclin T1 protein levels” value in experiment [3] was “decrease”. Also, the “proliferation (BrdU incorporation)” value with Ramos cells was “substantial decrease in proliferation”.

One may read the IC50 as the concentration needed to halve the response being measured.
